According to patent US20060172958A1, “Phospholipid scramblase 3” (priority 2003, published 2006):

Assays:
293-vector cells = experiment: Mitochondrial potential by Rhodamine 123 flow cytometry; format: cell-based; settings: antimycin A for 6 h
Method: FIG. 14. Overexpression of mutant PLS3 reduces mitochondrial mass, potential, and cytochrome c and CL content. […] C. […] The blot was re-probed with antibodies to VDAC and tubulin for controls. […] Error bars, SDs from five independent measurements. E. Quantitative PCR analysis of mitochondrial NADH dehydrogenase in 400 ng of whole cell genomic DNA. […] The crossing points (in cycle numbers) of the three cells are indicated.

HEK293 cells = experiment: UV-induced cytochrome c release, subcellular fractionation and Western blot; format: cell-based
Method: Subcellular fractionation was performed by differential centrifugation. In brief, […] were incubated in buffer containing 300 mM sucrose, 10 mM Tris (pH 7.5), 5 mM EDTA, 0.1% BSA and 1 mM PMSF protease inhibitor for 5 min on ice. Cells were disrupted by passage through a 25 G needle or dounced for 10 strokes, and then were centrifuged at 1000×g for 5 minutes, 10,000×g for 10 minutes, and 30,000×g for 60 minutes, for collection of intact cells/nuclei, crude mitochondria and microsomes, respectively. The final supernatants were used as cytosols. The mitochondria and the cytosolic fractions were analyzed for cytochrome c release with Western blot.
The kinase that phosphorylates PLS3 was then sought. Based on the observation that PLS1 is phosphorylated by […], we studied whether PLS3 is the mitochondrial substrate of PKC-δ. It was first reconfirmed that PKC-δ is essential for UV-induced apoptosis by blocking PKC-δ with a PKC-δ inhibitor, rottlerin, in our system. The HEK293 cells were fractionated and the isolated mitochondria and cytosols were analyzed for cytochrome c release by Western blot. This study confirmed that cytochrome c was released to cytosol after UV irradiation, and this release was inhibited by rottlerin (FIG. 20b). […]

mouse liver mitochondria = experiment: Cardiolipin transfer assay (NAO fluorescence); format: biochemical; settings: 30 μM NAO, vs buffer or BSA control
Description: Cardiolipin was then investigated since cardiolipin is a mitochondrion-specific phospholipid and is potentially more critical in the process of apoptosis. Because radioactive cardiolipin is not commercially available, NAO was used to quantify cardiolipin in the recipient mitochondria. NAO binds cardiolipin specifically without interference by other phospholipids with a stoichiometry of 1 to 1 or 2 to 1. To achieve maximal NAO saturation, the recipient mitochondria were permeablized and fixed with formaldehyde. A dose titration of NAO was then performed. The red fluorescence achieved a plateau when the NAO concentrations were above 20 μM as reported (Garcia Fernandez et al. 2000). The concentration of 30 μM was thus chosen to determine the total amount of cardiolipin after in vitro cardiolipin transfer assay. […]
Phospholipid transfer assay was modified from Koumanov et al. (Koumanov and Infante 1986). […] Mitochondria were then washed five times with mitochondrial preparation buffer to remove free liposomes and counted by scintillation counter for ^14C activity. For cardiolipin transfer assays, total amounts of cardiolipin were quantified by specific fluorescence with NAO dye. NAO (30 μM) was added to recipient mitochondria, and fluorescence intensity was measured at 590±35 nm by fluorescence microplate reader.

HeLa-PLS3 cells = experiment: TUNEL apoptosis assay with flow cytometry; format: cell-based; settings: 200 nM PMA, 2 hours
Method: (§1) Apoptotic assays were performed with annexinV-PE (BD-PharMingen) per manufacturer's protocol. The TUNEL assay (terminal deoxynucleotidyltransferase-mediated dUTP-biotin nick end labeling) was performed according to the manufacturer's protocol (Roche, Switzerland).
(§2) If PLS3 is a direct downstream effector of PKC-δ in the PKC-δ-induced apoptotic pathway, then overexpression of PLS3 might enhance apoptosis induced by PKC-δ activation. HeLa-PLS3 were incubated with phorbol ester PMA, and analyzed for apoptosis with TUNEL assay and flow cytometry.

HeLa-control cells = experiment: TUNEL apoptosis assay with flow cytometry; format: cell-based; settings: 200 nM PMA, 2 hours
Method: as §1, §2

Compound: antimycin A
- mitochondrial potential (Rhodamine 123) (293-vector cells): decrease of mitochondrial potential

Compound: CC(=O)c1c(O)c(C)c(O)c(Cc2c(O)c3c(c(C(=O)/C=C/c4ccccc4)c2O)OC(C)(C)C=C3)c1O [rottlerin]
- amount of PKC-δ translocated to mitochondria (HEK293 cells; UV plus rottlerin, washed mitochondria, 100 nM PMA, cytochrome c release): decreased
- cytochrome c release to cytosol after UV irradiation (HEK293 cells; rottlerin 10 μM, harvested 4 hours after UV): inhibited

Compound: PLS3: Recombinant phospholipid scramblase 3 protein; purified PLS3β in transfer assay, His-tagged PLS3 in kinase assay
- increase of total amount of cardiolipin in recipient mitochondria (mouse liver mitochondria): 35%

Compound: CCCCCCCCCCCCCC(=O)O[C@@H]1[C@@H](C)[C@@]2(O)[C@@H](C=C(CO)C[C@]3(O)C(=O)C(C)=C[C@@H]23)[C@@H]2C(C)(C)[C@]12OC(C)=O [PMA]
- apoptosis (TUNEL) (HeLa-PLS3 cells): shifted the curve to right
- apoptosis (TUNEL) (HeLa-control cells): did not induce any apoptosis
